Experimental data as given in patent US20110237592A1, “SUBSTITUTED AMIDO PHENOXYBENZAMIDES” (BAYER SCHERING PHARMA AKTIENGESELLSCHAFT, priority 2008, published 2011).

Legend:
A375 cells = experiment: A375 proliferation crystal violet (CV) assay; format: cell-based; settings: Homo sapiens, A-375, 96 h, crystal violet staining, 4 days
Description: Alternatively, the cell proliferation was measured by crystal violet (CV) staining: Assay 7
Cultivated human A375 cells were plated out in a density of 1500 cells/measurement point in 200 μl of growth medium (DMEM/HAMS F12 (Biochrom; FG4815) with 10% FBS and 2 mM Glutamine) in a 96-well multititer plate. After 24 hours, the cells from a plate (zero plate) were stained with crystal violet (see below), while the medium in the other plates was replaced by fresh culture medium (200 μl) to which the test substances had been added in various concentrations (0 μM, and in the range 0.3 nM-30 μM; the final concentration of the solvent dimethyl sulphoxide was 0.5%). The cells were incubated in the presence of the test substances for 4 days. The cell proliferation was determined by staining the cells with crystal violet: the cells were fixed by adding 20 μl/measurement point of an 11% glutaraldehyde solution at room temperature for 15 min. After the fixed cells had been washed three times with water, the plates were dried at room temperature. The cells were stained by adding 100 μl/measurement point of a 0.1% crystal violet solution (pH adjusted to pH 3 by adding acetic acid). After the stained cells had been washed three times with water, the plates were dried at room temperature. The dye was dissolved by adding 100 μl/measurement point of a 10% acetic acid solution, and the extinction was determined by photometry at a wavelength of 595 nm. The percentage change in cell growth was calculated by normalizing the measurements to the extinctions of the zero point plate (=0%) and the extinction of the untreated (0 μM) cells (=100%). The IC50 values were determined by means of a 4-parameter fit using the company's own software.

MEK1 = biological target: T1, MEK1 (Homo sapiens, UniProt Q02750); experiment: MEK1 activation kinase assay (Cot1, HTRF); format: biochemical; settings: inhibition of Cot1-mediated activation of GST-MEK1, HTRF
T1 construct: purchased Millipore 14-420
Text: The kinase Cot1 activates MEK1 by phosphorylating its activation loop. The inhibitory activity of compounds of the present invention on this activation of MEK1 was quantified employing the HTRF assay described in the following paragraphs.
N-terminally His6-tagged recombinant kinase domain of the human Cot1 (amino acids 30-397, purchased from Millipore, cat. no 14-703) expressed in insect cells (SF21) and purified by Ni-NTA affinity chromatography was used as kinase. As substrate for the kinase reaction the unactive C-terminally His6-tagged GST-MEK1 fusion protein (Millipore cat. no 14-420) was used.
For the assay 50 nl of a 100 fold concentrated solution of the test compound in DMSO was pipetted into a black low volume 384 well microtiter plate (Greiner Bio-One, Frickenhausen, Germany), 3 μl of a solution of 24 nM GST-MEK1 and 166.7 μM adenosine-tri-phosphate (ATP) in assay buffer [50 mM Tris/HCl pH 7.5, 10 mM MgCl2, 2 mM dithiothreitol, 0.01% (v/v) Igepal CA 630 (Sigma), 5 mM β-phospho-glycerol] were added and the mixture was incubated for 10 min at 22° C. to allow pre-binding of the test compounds to the GST-MEK1 before the start of the kinase reaction. Then the kinase reaction was started by the addition of 2 μl of a solution of Cot1 in assay buffer and the resulting mixture was incubated for a reaction time of 20 min at 22° C. […]
The resulting mixture was incubated 2 h at 22° C. to allow the binding of the phosphorylated GST-MEK1 to the anti-GST-XL665 and the Eu-cryptate labelled anti-phospho-MEK 1/2 antibody. Subsequently the amount of Ser217/Ser221-phosphorylated substrate was evaluated by measurement of the resonance energy transfer from the Eu-Cryptate-labelled anti-phospho-MEK antibody to the anti-GST-XL665. Therefore, the fluorescence emissions at 620 nm and 665 nm after excitation at 350 nm was measured in a HTRF reader, e.g. a Rubystar (BMG Labtechnologies, Offenburg, Germany) or a Viewlux (Perkin-Elmer). […]

MEK1/2 = settings: background statement, ref. [17]; cited from earlier work
colon cancer = settings: oral treatment, mouse models, ref. [18]; cited from earlier work
[1] = currently preferred example compounds

T1 sequence (Q02750 whole entry): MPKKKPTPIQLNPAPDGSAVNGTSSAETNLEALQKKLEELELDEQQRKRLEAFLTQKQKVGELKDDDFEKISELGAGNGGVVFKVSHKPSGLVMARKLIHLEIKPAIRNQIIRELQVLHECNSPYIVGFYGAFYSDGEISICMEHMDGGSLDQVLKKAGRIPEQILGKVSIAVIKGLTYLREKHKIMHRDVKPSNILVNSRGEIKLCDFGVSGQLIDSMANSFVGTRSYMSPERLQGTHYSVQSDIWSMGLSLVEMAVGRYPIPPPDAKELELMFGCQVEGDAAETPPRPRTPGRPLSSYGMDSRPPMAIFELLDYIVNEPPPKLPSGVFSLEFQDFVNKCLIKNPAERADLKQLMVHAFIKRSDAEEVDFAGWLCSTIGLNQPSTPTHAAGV

SMILES	IC50 (A375 cells; [1]) [nM]	also measured
CSCC(=O)Nc1cccc(Oc2cc(F)cc(Nc3ccc(I)cc3F)c2C(N)=O)c1 [Example 3.3, 4-Fluoro-2-(2-fluoro-4-iodo-phenylamino)-6-[3-(2-methylsulfanyl-acetylamino)-phenoxy]-benzamide]	< 100	–
NC(=O)c1c(Nc2ccc(I)cc2F)cc(F)cc1Oc1ccc2oc(=O)[nH]c2c1 [Example 4.1, 4-Fluoro-2-(2-fluoro-4-iodo-phenylamino)-6-(2-oxo-2,3-dihydro-benzooxazol-5-yloxy)-benzamide]	< 100	IC50 (MEK1): < 100 nM
NC(=O)c1c(Nc2ccc(I)cc2F)cc(F)cc1Oc1cccc(NC(=O)C2CCOCC2)c1 [Example 3.5, Tetrahydro-pyran-4-carboxylic acid {3-[2-carbamoyl-5-fluoro-3-(2-fluoro-4-iodo-phenylamino)-phenoxy]-phenyl}-amide]	< 100	–
CN1CCC(C(=O)Nc2cccc(Oc3cc(F)cc(Nc4ccc(I)cc4F)c3C(N)=O)c2)CC1 [Example 3.17, 1-Methyl-piperidine-4-carboxylic acid {3-[2-carbamoyl-5-fluoro-3-(2-fluoro-4-iodo-phenylamino)-phenoxy]-phenyl}-amide]	–	IC50 (MEK1): < 100 nM
NC(=O)c1c(Nc2ccc(I)cc2F)cc(F)cc1Oc1cccc(NC(=O)C(F)(F)F)c1 [Example 5.1, 4-Fluoro-2-(2-fluoro-4-iodo-phenylamino)-6-[3-(2,2,2-trifluoro-acetylamino)-phenoxy]-benzamide]	–	IC50 (A375 cells): < 1000 nM
COCC(=O)Nc1cccc(Oc2cc(F)cc(Nc3ccc(I)cc3F)c2C(N)=O)c1 [Example 3.2, 4-Fluoro-2-(2-fluoro-4-iodo-phenylamino)-6-[3-(2-methoxy-acetylamino)-phenoxy]-benzamide]	< 100	–
NC(=O)c1c(Nc2ccc(I)cc2F)cc(F)cc1Oc1cccc(NC(=O)CN2CCOCC2)c1 [Example 3.7, 4-Fluoro-2-(2-fluoro-4-iodo-phenylamino)-6-[3-(2-morpholin-4-yl-acetylamino)-phenoxy]-benzamide]	< 100	–
O=C(NOCC1CC1)c1ccc(F)c(F)c1Nc1ccc(I)cc1Cl [CI-1040]	–	IC50 (MEK1/2): low nanomolar range; colon cancer growth in vivo (colon cancer): inhibit colon cancer growth in vivo
NC(=O)c1c(Nc2ccc(I)cc2F)cc(F)cc1Oc1cccc(NC(=O)CO)c1 [Example 3.1, 4-Fluoro-2-(2-fluoro-4-iodo-phenylamino)-6-[3-(2-hydroxy-acetylamino)-phenoxy]-benzamide]	< 100	–
CC(C)(O)C(=O)Nc1cccc(Oc2cc(F)cc(Nc3ccc(I)cc3F)c2C(N)=O)c1 [Example 1.1, 4-Fluoro-2-(2-fluoro-4-iodo-phenylamino)-6-[3-(2-hydroxy-2-methylpropionylamino)-phenoxy]-benzamide]	< 100	IC50 (MEK1): < 100 nM; IC50 (A375 cells): < 1000 nM
CC(O)C(=O)Nc1cccc(Oc2cc(F)cc(Nc3ccc(I)cc3F)c2C(N)=O)c1 (stereo not drawn) [Example 3.6, 4-Fluoro-2-(2-fluoro-4-iodo-phenylamino)-6-[3-(2-hydroxy-propionylamino)-phenoxy]-benzamide]	< 100	–
